The text below walks through data of ChEMBL document CHEMBL4340502, “Anti-biofilm and anti-adherence properties of novel cyclic dipeptides against oral pathogens” (Bioorg Med Chem, 2019).

Molecules are shown by their SMILES. Active and inactive are the calls of the source. The rule behind the calls is not given here.

One series concerns Streptococcus mutans. The experiment in a line: Antibiofilm activity against Streptococcus mutans ATCC 25175 assessed as inhibition of biofilm formation up to 96 ug/mL after 24 hrs by crystal violet staining-based assay. Type of series: functional, organism-based.
For the compound `CC(C)C[C@H]1NC(=O)[C@@H](CC(C)C)NC1=O`, the inhibition entry is “inactive”.
Still for that read-out and setting: as for `CC(C)[C@@H]1NC(=O)[C@H](COCc2ccccc2)NC1=O`, the entry is “inactive”; as for `CC(C)C[C@@H]1NC(=O)[C@H](CC(C)C)NC1=O`, “inactive”.
For the compound `CC(C)[C@@H]1NC(=O)[C@H](C(C)C)NC1=O`, the inhibition result was “inactive”.
As for `N=C(N)NCCC[C@@H]1NC(=O)[C@H](Cc2ccc(O)cc2)NC1=O`, the inhibition entry is “inactive”.
For the compound `C[C@@H]1NC(=O)[C@@H](C)NC1=O`, the inhibition entry was “inactive”.
`CCC(C)[C@@H]1NC(=O)[C@H](C(C)CC)NC1=O` (some centres undefined): the inhibition entry is “inactive”.
For `O=C1[C@H]2CCCN2C(=O)[C@H]2CCCN12`, the inhibition result is “inactive”.
The same measure, in the same setting: the result for `O=C1N[C@H](COCc2ccccc2)C(=O)N[C@H]1COCc1ccccc1` reads “inactive”.
On the same count and under the same terms, the result for `N=C(N)N(CCC[C@@H]1NC(=O)[C@H](CCCCNC(=O)OCc2ccccc2)NC1=O)[N+](=O)[O-]` reads “inactive”; that for `O=C1N[C@@H](Cc2ccccc2)C(=O)N[C@H]1COCc1ccccc1`, “inactive”; that for `O=C1[C@@H]2CCCN2C(=O)[C@@H]2CCCN12`, “inactive”.
The same measure, in the same setting: as for `CC(C)C[C@@H]1NC(=O)[C@H](CCCN(C(=N)N)[N+](=O)[O-])NC1=O`, the entry is “inactive”; as for `CC(C)C[C@@H]1NC(=O)CNC1=O`, “inactive”.
On to `C[C@@H]1NC(=O)[C@H](C)NC1=O`, for which the inhibition result is “inactive”.
On the same count and under the same terms, as for `CCC(C)[C@@H]1NC(=O)[C@H](COCc2ccccc2)NC1=O` (some centres undefined), the entry is “inactive”.

In the next series the test system is Porphyromonas gingivalis. As to the kind of experiment: Antibiofilm activity against Porphyromonas gingivalis ATCC 33277 assessed as inhibition of biofilm formation up to 96 ug/mL after 24 hrs by crystal violet staining based assay. It is filed as functional, organism-based.
`CC(C)C[C@H]1NC(=O)[C@@H](CC(C)C)NC1=O`: the inhibition entry is “inactive”.
For `CC(C)[C@@H]1NC(=O)[C@H](COCc2ccccc2)NC1=O`, the inhibition result is “inactive”.
Same read-out and setting: as for `CC(C)C[C@@H]1NC(=O)[C@H](CC(C)C)NC1=O`, the entry is “inactive”.
Still for that read-out and setting: the result for `CC(C)[C@@H]1NC(=O)[C@H](C(C)C)NC1=O` reads “inactive”; that for `N=C(N)NCCC[C@@H]1NC(=O)[C@H](Cc2ccc(O)cc2)NC1=O`, “inactive”; that for `C[C@@H]1NC(=O)[C@@H](C)NC1=O`, “inactive”.
For the compound `CCC(C)[C@@H]1NC(=O)[C@H](C(C)CC)NC1=O` (some centres undefined), the inhibition entry is “inactive”.
As to `O=C1[C@H]2CCCN2C(=O)[C@H]2CCCN12`, the inhibition result was “inactive”.
With `O=C1N[C@H](COCc2ccccc2)C(=O)N[C@H]1COCc1ccccc1`, the inhibition result was “inactive”.
Regarding `N=C(N)N(CCC[C@@H]1NC(=O)[C@H](CCCCNC(=O)OCc2ccccc2)NC1=O)[N+](=O)[O-]`, the inhibition entry was “inactive”.
`O=C1N[C@@H](Cc2ccccc2)C(=O)N[C@H]1COCc1ccccc1`: the inhibition entry is “inactive”.
Consider `O=C1[C@@H]2CCCN2C(=O)[C@@H]2CCCN12`, for which the inhibition entry is “inactive”.
Take `CC(C)C[C@@H]1NC(=O)[C@H](CCCN(C(=N)N)[N+](=O)[O-])NC1=O`: the inhibition entry was “inactive”.
Same read-out and setting: as for `CC(C)C[C@@H]1NC(=O)CNC1=O`, the entry is “inactive”; as for `C[C@@H]1NC(=O)[C@H](C)NC1=O`, “inactive”.
On the same count and under the same terms, as for `CCC(C)[C@@H]1NC(=O)[C@H](COCc2ccccc2)NC1=O` (some centres undefined), the entry is “inactive”.

For the next series, the system named is Streptococcus mutans. As to the kind of experiment: Inhibition of planktonic growth of Streptococcus mutans ATCC 25175 up to 96 ug/mL after 24 hrs relative to control. It is filed as organism-based.
With `CC(C)C[C@H]1NC(=O)[C@@H](CC(C)C)NC1=O`, the “growth inhibition (GI)” value is listed as “Non-Toxic”.
As for `CC(C)[C@@H]1NC(=O)[C@H](COCc2ccccc2)NC1=O`, the “growth inhibition (GI)” value was “Non-Toxic”.
For `CC(C)C[C@@H]1NC(=O)[C@H](CC(C)C)NC1=O`, the “growth inhibition (GI)” value is recorded as “Non-Toxic”.
As to `CC(C)[C@@H]1NC(=O)[C@H](C(C)C)NC1=O`, the “growth inhibition (GI)” value is “Non-Toxic”.
On the same count and under the same terms, the result for `N=C(N)NCCC[C@@H]1NC(=O)[C@H](Cc2ccc(O)cc2)NC1=O` reads “Non-Toxic”; that for `C[C@@H]1NC(=O)[C@@H](C)NC1=O`, “Non-Toxic”.
Regarding `CCC(C)[C@@H]1NC(=O)[C@H](C(C)CC)NC1=O` (some centres undefined), the “growth inhibition (GI)” value is recorded as “Non-Toxic”.
Turning to `O=C1[C@H]2CCCN2C(=O)[C@H]2CCCN12`, the “growth inhibition (GI)” value is listed as “Non-Toxic”.
As for `O=C1N[C@H](COCc2ccccc2)C(=O)N[C@H]1COCc1ccccc1`, the “growth inhibition (GI)” value is on record as “Non-Toxic”.
Still for that read-out and setting: the result for `N=C(N)N(CCC[C@@H]1NC(=O)[C@H](CCCCNC(=O)OCc2ccccc2)NC1=O)[N+](=O)[O-]` reads “Non-Toxic”; that for `O=C1N[C@@H](Cc2ccccc2)C(=O)N[C@H]1COCc1ccccc1`, “Non-Toxic”; that for `O=C1[C@@H]2CCCN2C(=O)[C@@H]2CCCN12`, “Non-Toxic”.
As for `CC(C)C[C@@H]1NC(=O)[C@H](CCCN(C(=N)N)[N+](=O)[O-])NC1=O`, the “growth inhibition (GI)” value is “Non-Toxic”.
The same measure, in the same setting: the result for `CC(C)C[C@@H]1NC(=O)CNC1=O` reads “Non-Toxic”; that for `C[C@@H]1NC(=O)[C@H](C)NC1=O`, “Non-Toxic”; that for `CCC(C)[C@@H]1NC(=O)[C@H](COCc2ccccc2)NC1=O` (some centres undefined), “Non-Toxic”.

A further series relates to Fusobacterium nucleatum. The experiment in a line: Antibiofilm activity against Fusobacterium nucleatum ATCC 25586 assessed as inhibition of biofilm formation up to 96 ug/mL after 24 hrs by crystal violet staining based assay. It is filed as functional, organism-based.
Take `CC(C)C[C@H]1NC(=O)[C@@H](CC(C)C)NC1=O`: the inhibition result is “inactive”.
For `CC(C)[C@@H]1NC(=O)[C@H](COCc2ccccc2)NC1=O`, the inhibition result was “inactive”.
Regarding `CC(C)C[C@@H]1NC(=O)[C@H](CC(C)C)NC1=O`, the inhibition result is “inactive”.
As to `CC(C)[C@@H]1NC(=O)[C@H](C(C)C)NC1=O`, the inhibition result was “inactive”.
Consider `N=C(N)NCCC[C@@H]1NC(=O)[C@H](Cc2ccc(O)cc2)NC1=O`, for which the inhibition result was “inactive”.
The same measure, in the same setting: the result for `C[C@@H]1NC(=O)[C@@H](C)NC1=O` reads “inactive”; that for `CCC(C)[C@@H]1NC(=O)[C@H](C(C)CC)NC1=O` (some centres undefined), “inactive”; that for `O=C1[C@H]2CCCN2C(=O)[C@H]2CCCN12`, “inactive”.
`O=C1N[C@H](COCc2ccccc2)C(=O)N[C@H]1COCc1ccccc1`: the inhibition result was “inactive”.
Take `N=C(N)N(CCC[C@@H]1NC(=O)[C@H](CCCCNC(=O)OCc2ccccc2)NC1=O)[N+](=O)[O-]`: the inhibition result is “inactive”.
On to `O=C1N[C@@H](Cc2ccccc2)C(=O)N[C@H]1COCc1ccccc1`, for which the inhibition result was “inactive”.
On to `O=C1[C@@H]2CCCN2C(=O)[C@@H]2CCCN12`, for which the inhibition entry is “inactive”.
Take `CC(C)C[C@@H]1NC(=O)[C@H](CCCN(C(=N)N)[N+](=O)[O-])NC1=O`: the inhibition entry is “inactive”.
Still for that read-out and setting: as for `CC(C)C[C@@H]1NC(=O)CNC1=O`, the entry is “inactive”; as for `C[C@@H]1NC(=O)[C@H](C)NC1=O`, “inactive”.
Take `CCC(C)[C@@H]1NC(=O)[C@H](COCc2ccccc2)NC1=O` (some centres undefined): the inhibition entry is “inactive”.
